The target in assay [1] is Mushroom tyrosinase (Agaricus bisporus) (UniProt C7FF04). The assay can be described thus: enzyme inhibition kinetics (Lineweaver-Burk); tyrosinase with L-tyrosine as substrate; KI and KIS from the slope ratio and intercept ratio of the Lineweaver-Burk lines with and without YYP; YYP 0.5 mM.
Assay [2] shares this target. The experiment in a line: enzyme inhibition kinetics (Lineweaver-Burk); tyrosinase with L-tyrosine as substrate; KI and KIS from the slope ratio and intercept ratio of the Lineweaver-Burk lines with and without YYP; YYP 1 mM.
The target is the same in assay [3]. The assay can be described thus: enzyme inhibition kinetics (Lineweaver-Burk); tyrosinase with L-tyrosine as substrate; KI and KIS from the slope ratio and intercept ratio of the Lineweaver-Burk lines with and without YYP; YYP 2 mM.
The target is the same in assay [4].
The target of assay [5] is T1, Mushroom tyrosinase (Agaricus bisporus, UniProt C7FF04).
T1 construct: purchased Beijing Solarbio Biotechnology Co., Ltd
T1 sequence (C7FF04 1-392 limits assumed): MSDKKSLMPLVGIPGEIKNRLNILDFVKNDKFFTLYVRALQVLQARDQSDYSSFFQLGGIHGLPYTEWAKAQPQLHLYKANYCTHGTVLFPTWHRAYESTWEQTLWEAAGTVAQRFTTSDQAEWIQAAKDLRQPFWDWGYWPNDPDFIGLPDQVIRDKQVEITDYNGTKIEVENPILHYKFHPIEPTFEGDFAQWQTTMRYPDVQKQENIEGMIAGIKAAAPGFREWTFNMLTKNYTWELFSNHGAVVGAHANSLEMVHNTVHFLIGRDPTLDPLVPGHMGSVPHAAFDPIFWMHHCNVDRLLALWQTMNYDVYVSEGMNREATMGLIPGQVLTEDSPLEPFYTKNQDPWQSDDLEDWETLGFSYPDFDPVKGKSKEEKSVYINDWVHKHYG
The experiment in a line: Tyrosinase inhibitory activity (L-tyrosine substrate, absorbance at 475 nm). Type of assay: biochemical. As for the experimental part:
Tyrosinase inhibitory activity was determined in conformity with. With reference to the reagent addition in Table 1, we added phosphate buffer solution (PBS, pH 6.8, 0.1 mol/L), sample solutions and L-tyrosine solution (L-Tyr, 0.5 mg/mL, pH 6.8 in PBS) to each well in a 96-well plate. These were mixed well and incubated at 37 °C for 10 min. Then, 20 μL of mushroom tyrosinase solution (500 U/mL) was added, mixed and reacted at 37 °C for 15 min, and monitored at 475 nm. The tyrosinase inhibition rate (Y) was calculated as follows:(1) Y=(1−A4−A3/A2−A1)×100% where A4 is the absorbance of the reaction well of the sample, A3 is the absorbance value of the sample background well, A2 is the absorption value of the solvent reaction well and A1 is the absorbance of the solvent background well.

The target of assay [6] is T2, tyrosinase (Agaricus bisporus, UniProt C7FF04).
T2 construct: purchased Beijing Solarbio Biotechnology Co., Ltd
The assay can be described thus: Enzyme inhibition kinetic assay (enzyme concentration vs. rate, Lineweaver–Burk plots). Type of assay: biochemical, mushroom. As to conditions: for Ki: Inhibition Constant KI (mM), enzyme–inhibitor complex; for Inhibition Constant KIS: enzyme–inhibitor–substrate complex. The source says:
The Lineweaver–Burk double-inverse curve was obtained by taking the reciprocal of the substrate concentration (1/[S]) as the horizontal coordinate and the reciprocal of the initial reaction rate (1/V) as the vertical coordinate to determine the type of inhibition and to calculate the Mie constant (KM) and the maximum reaction rate (Vmax).
To elucidate the mechanism of inhibition of tyrosinase by YYP, kinetic studies were used to investigate the kinetic characterization of the inhibitory response (Figure 6).
The Lineweaver–Burk double-inverse plot of the inhibitory effect of YYP on tyrosinase is illustrated in Figure 6. The 1/V were both fitted linearly to the 1/[S] (R^2 and p-values shown in Table 10) and intersected in the second quadrant of the graph. As the amount of YYP increased, the value of KM increased and the value of Vmax decreased.
The mixed-inhibitory type inhibits tyrosinase via two distinct pathways: competitively forming enzyme–inhibitor (EI) complexes and interrupting enzyme–substrate–inhibitor (ESI) complexes in a noncompetitive manner. The inhibition constant KI or KIS is the dissociation constant for the dissociation of the inhibitor (I) from the EI complexs or the enzyme–inhibitor–substrate (EIS) complexs. Both baicalein and cinnamic acid derivatives are reversible mixed-type inhibitors. […] Summarized in Table 10, based on the slope ratio and intercept ratio of the Lineweaver–Burk curve (with and without the presence of samples), the KI and KIS can be obtained.

Setting [7] is: synthetic peptides, read-out: Tyrosinase Inhibitory Activity (IC50).

Entries after “also recorded” stand apart in the source; their conditions may differ. Like-named read-outs stand apart in the source and are kept apart here. Peptide text beside a SMILES is read from it.

Consider Tyr-Tyr-Pro (YYP) (peptide), for which the KIS (inhibitor from the enzyme-inhibitor-substrate complex) in assay [1] stood at 8.38 mM; in assay [2], 11.4 mM; in assay [3], 12.1 mM. For the same molecule, the Tyrosinase Inhibitory Activity (IC50, mM); oxidation of L-tyrosine by mushroom tyrosinase read at 475 nm in assay [4] is 1.76 mM.

For the molecule `CC(C)[C@H](NC(=O)[C@H](CCCNC(=N)N)NC(=O)[C@@H](N)Cc1ccccc1)C(=O)N[C@@H](CCCCN)C(=O)O` [FRVK, Phe-Arg-Val-Lys] (H-FRVK-OH; N-terminus and C-terminus assumed), the IC50 – broadly, the concentration needed to halve the response being measured – in assay [5] (setting [7]) amounted to 5.87 ± 0.068 mM.

Consider Pro-Tyr-Leu-Lys (PYLK) (peptide), for which the Tyrosinase Inhibitory Activity (IC50, mM); oxidation of L-tyrosine by mushroom tyrosinase read at 475 nm in assay [4] is over 10 mM.

Consider `O=C(O)[C@H](Cc1ccccc1)NC(=O)[C@H](Cc1c[nH]cn1)NC(=O)[C@H](Cc1c[nH]cn1)NC(=O)[C@@H]1CCCN1` [PHHF, Pro-His-His-Phe] (H-PHHF-OH; N-terminus and C-terminus assumed), for which, in assay [5] (setting [7]), the IC50 was over 10 mM.

Take `CC(C)C[C@H](NC(=O)[C@H](Cc1ccc(O)cc1)NC(=O)[C@@H]1CCCN1)C(=O)N[C@@H](CCCCN)C(=O)O` [PYLK, Pro-Tyr-Leu-Lys] (H-PYLK-OH; N-terminus and C-terminus assumed): the IC50 in assay [5] (setting [7]) is over 10 mM.

Consider `N[C@@H](Cc1ccc(O)cc1)C(=O)N[C@@H](Cc1ccc(O)cc1)C(=O)N1CCC[C@H]1C(=O)O` [YYP, Tyr-Tyr-Pro] (H-Tyr-Tyr-Pro-OH; N-terminus and C-terminus assumed), for which the Ki – broadly, the dissociation constant of the complex between target and ligand, obtained from inhibition or displacement – stood at 0.245 mM in assay [6] (YYP 0.5 mM), 0.283 mM in assay [6] (YYP 1 mM) and 0.428 mM in assay [6] (YYP 2 mM). Also, in assay [6] (Lineweaver–Burk analysis), the “Type of tyrosinase inhibition” value is “mixture of noncompetitive and competitive types; also recorded: mixed type of inhibition; also recorded: hybrid”. Moreover, the “Maximum Reaction Speed Vmax (A475/min)” value in assay [6] (YYP 0.5 mM) was found to be 0.0212 A475/min; in assay [6] (YYP 1 mM), 0.0206 A475/min; in assay [6] (YYP 2 mM) it was 0.0192 A475/min. Further, the “Inhibition Constant KIS” value in assay [6] (YYP 0.5 mM) came out at 8.3833 mM; in assay [6] (YYP 1 mM) it was 11.4139 mM; in assay [6] (YYP 2 mM), 12.1276 mM. The “Reversibility of tyrosinase inhibition” value in assay [6] (enzyme concentration vs. initial rate at different YYP concentrations) is given as “reversible”. In addition, in assay [5], the IC50 came to 1.76 ± 0.025 mM.

B1: Phe-Arg-Val-Lys (FRVK) (peptide)
peptide: FRVK
Molecule B1 showed a Tyrosinase Inhibitory Activity (IC50, mM); oxidation of L-tyrosine by mushroom tyrosinase read at 475 nm in assay [4] of 5.87 mM.

B2: Pro-His-His-Phe (PHHF) (peptide)
peptide: PHHF
Turning to B2, the Tyrosinase Inhibitory Activity (IC50, mM); oxidation of L-tyrosine by mushroom tyrosinase read at 475 nm in assay [4] was over 10 mM.

Source of the values: publication PMC10649063, “Optimization of a Novel Tyrosinase Inhibitory Peptide from Atrina pectinata Mantle and Its Molecular Inhibitory Mechanism” (Foods, 2023).
